The values below come from ChEMBL document CHEMBL4033717, “Synthesis and anticancer activity of novel aza-artemisinin derivatives” (Bioorg Med Chem, 2017).

One assay has as its system HMEC-1. The experiment in a line: Anti-proliferative activity against HMEC1 cells after 3 days by coulter counting method. The assay is classed as cell-based. The conditions noted are these: Homo sapiens, HMEC-1, 72 h.
Another assay relates to CCRF-CEM. The experiment in a line: Anti-proliferative activity against human CEM cells after 4 days by coulter counting method. The assay is classed as functional, cell-based. The conditions noted are these: 96 h.
The next assay relates to HeLa. Briefly: Anti-proliferative activity against human HeLa cells after 3 days by coulter counting method. It is filed as functional, cell-based. The settings on record: 72 h.
Assay [1] in a line: Selectivity ratio of IC50 for HMEC1 cells to IC50 for human CEM cells.

pIC50: −log10 of the molar value.

For `C[C@@H]1CC[C@H]2[C@@H](C)C(=O)N[C@@H]3O[C@@]4(C)CC[C@@H]1[C@]32OO4`, the figures for the pIC50 in the assay with HMEC-1, in the assay with CCRF-CEM and with HeLa were less than 3.60, 3.82 and 3.83, respectively.

Regarding `C[C@@H]1CC[C@H]2[C@@H](C)C(OCCn3nnc4c3CCc3ccccc3-4)O[C@@H]3O[C@@]4(C)CC[C@@H]1[C@]32OO4` (stereo partly drawn), the pIC50 with HMEC-1 is less than 3.60; in the assay on CCRF-CEM, 3.80; with HeLa, less than 3.60.

With `C[C@H]1[C@H](OC(=O)C2CCc3c(nnn3CCc3c[nH]c4ccccc34)C2)O[C@@H]2O[C@@]3(C)CC[C@H]4[C@H](C)CC[C@@H]1[C@@]24OO3` (stereo partly drawn), the values for the pIC50 with HMEC-1, in the assay on CCRF-CEM and in the assay on HeLa were 4.40, 5.41 and 4.92, respectively.

With `COc1cc(-n2cc(CN3C(=O)[C@H](C)[C@@H]4CC[C@@H](C)[C@@H]5CC[C@@]6(C)OO[C@]54[C@H]3O6)nn2)cc(OC)c1OC`, the “Ratio IC50” value in assay [1] was 8 - 50. In addition, the pIC50 is 3.81 in the assay with HMEC-1, 4.77 in the assay on CCRF-CEM and 4.72 in the assay on HeLa.

Take `C[C@@H]1CC[C@H]2[C@@H](C)C(OCCn3nnc4c3C[C@@H]3CC[C@@H]5[C@H](CC[C@]6(C)[C@@H](O)CC[C@@H]56)[C@@]3(C)C4)O[C@@H]3O[C@@]4(C)CC[C@@H]1[C@]32OO4` (stereo partly drawn): the pIC50 is 4.55 in the assay on HMEC-1, 5.05 in the assay with CCRF-CEM and 4.80 in the assay on HeLa.

In the case of `C[C@@H]1CC[C@H]2[C@@H](C)C(=O)N(Cc3cn(C4OC(COCc5ccccc5)[C@H](OCc5ccccc5)[C@@H]4OCc4ccccc4)nn3)[C@@H]3O[C@@]4(C)CC[C@@H]1[C@@]23OO4` (stereo partly drawn), the values for the pIC50 with HMEC-1, with CCRF-CEM and in the assay on HeLa were less than 3.60, less than 3.60 and no more than 3.60, respectively.

Take `C[C@@H]1CC[C@H]2[C@@H](C)C(OCCn3nncc3-c3ccc(Br)c(Br)c3)O[C@@H]3O[C@@]4(C)CC[C@@H]1[C@]32OO4` (stereo partly drawn): the figures for the pIC50 in the assay with HMEC-1, with CCRF-CEM and in the assay with HeLa were 4.59, 5.00 and 4.96, respectively.

For `C[C@@H]1CC[C@H]2[C@@H](C)C(=O)N(Cc3cn(C4CC(OC(=O)c5ccc(Cl)cc5)C(COC(=O)c5ccc(Cl)cc5)O4)nn3)[C@@H]3O[C@@]4(C)CC[C@@H]1[C@@]23OO4` (stereo partly drawn), the results for the pIC50 in the assay with HMEC-1, in the assay on CCRF-CEM and in the assay on HeLa were 4.62, 5.59 and 5.21, respectively.

As to `C[C@H]1[C@H](OC(=O)C2CCc3c(nnn3Cc3ccc4c(c3)OCO4)C2)O[C@@H]2O[C@@]3(C)CC[C@H]4[C@H](C)CC[C@@H]1[C@@]24OO3` (stereo partly drawn), the pIC50 in the assay with HMEC-1 is 4.46; in the assay on CCRF-CEM, 5.55; with HeLa, 4.96.

For the compound `CC(C)c1cccc(-n2cc(CN3C(=O)[C@H](C)[C@@H]4CC[C@@H](C)[C@@H]5CC[C@@]6(C)OO[C@]54[C@H]3O6)nn2)c1`, the “Ratio IC50” value in assay [1] stood at 30. In addition, the pIC50 with HMEC-1 is 4.52; with CCRF-CEM it was 6.04; in the assay with HeLa, 5.92.

Consider `C[C@@H]1CC[C@H]2[C@@H](C)C(OCCn3nnc4c3CCN(Cc3ccccc3)C4)O[C@@H]3O[C@@]4(C)CC[C@@H]1[C@]32OO4` (stereo partly drawn), for which the pIC50 in the assay with HMEC-1 is 4.52; with CCRF-CEM it was 4.70; in the assay on HeLa, 4.72.

On to `COc1cc2c(cc1OC)-c1nnn(CCOC3O[C@@H]4O[C@@]5(C)CC[C@H]6[C@H](C)CC[C@@H]([C@H]3C)[C@@]46OO5)c1CC2` (stereo partly drawn), for which the pIC50 was 3.82 in the assay on HMEC-1, 4.52 with CCRF-CEM and 4.44 in the assay on HeLa.

Turning to `C=C(C)[C@@H]1CC[C@]2(C(=O)O)CC[C@]3(C)[C@H](CC[C@@H]4[C@@]5(C)Cc6nnn(CCOC7O[C@@H]8O[C@@]9(C)CC[C@H]%10[C@H](C)CC[C@@H]([C@H]7C)[C@@]8%10OO9)c6C(C)(C)[C@@H]5CC[C@]43C)[C@@H]12` (stereo partly drawn), the pIC50 with HMEC-1 was 3.92; in the assay with CCRF-CEM, 5.30; with HeLa, 4.62.

For the compound `C[C@@H]1CC[C@H]2[C@@H](C)C(=O)N(Cc3cn(-c4ccccc4)nn3)[C@@H]3O[C@@]4(C)CC[C@@H]1[C@@]23OO4`, in assay [1], the “Ratio IC50” value is 8 - 50. Moreover, the pIC50 is less than 3.60 with HMEC-1, 5.29 in the assay with CCRF-CEM and 4.44 in the assay with HeLa.

Take `C[C@@H]1CC[C@H]2[C@@H](C)C(OCCn3nnc4c3CCc3ccc([N+](=O)[O-])cc3-4)O[C@@H]3O[C@@]4(C)CC[C@@H]1[C@]32OO4` (stereo partly drawn): the pIC50 with HMEC-1 is 3.80; in the assay with CCRF-CEM, 4.02; in the assay on HeLa it was 3.76.

As for `C[C@@H]1CC[C@H]2[C@@H](C)C(OCCn3nncc3-c3cccc4ccccc34)O[C@@H]3O[C@@]4(C)CC[C@@H]1[C@]32OO4` (stereo partly drawn), the pIC50 in the assay on HMEC-1 is 4.62; in the assay with CCRF-CEM it was 4.96; in the assay on HeLa, 4.92.

On to `COC(=O)Cn1cc(CN2C(=O)[C@H](C)[C@@H]3CC[C@@H](C)[C@@H]4CC[C@@]5(C)OO[C@]43[C@H]2O5)nn1`, for which the pIC50 with HMEC-1 is less than 3.60; in the assay with CCRF-CEM it was no more than 3.60; in the assay with HeLa it was less than 3.60.

Turning to `C#CCN1C(=O)[C@H](C)[C@@H]2CC[C@@H](C)[C@@H]3CC[C@@]4(C)OO[C@]32[C@H]1O4`, the pIC50 is 3.62 in the assay on HMEC-1, 3.98 in the assay on CCRF-CEM and 4.01 in the assay on HeLa.

As to `C[C@@H]1CC[C@H]2[C@@H](C)C(OCCn3nnc4c3-c3ccccc3CC4)O[C@@H]3O[C@@]4(C)CC[C@@H]1[C@]32OO4` (stereo partly drawn), the pIC50 was 4.46 in the assay on HMEC-1, 4.68 with CCRF-CEM and 4.70 in the assay with HeLa.

`C[C@@H]1CC[C@H]2[C@@H](C)C(=O)N(Cc3cn(-c4ccc(C#N)cc4)nn3)[C@@H]3O[C@@]4(C)CC[C@@H]1[C@@]23OO4`: the pIC50 is 4.59 with HMEC-1, 4.74 in the assay with CCRF-CEM and 4.44 in the assay with HeLa.

As for `C[C@@H]1CC[C@H]2[C@@H](C)C(OCCn3nncc3-c3ccccc3)O[C@@H]3O[C@@]4(C)CC[C@@H]1[C@]32OO4` (stereo partly drawn), the results for the pIC50 in the assay with HMEC-1, in the assay with CCRF-CEM and in the assay on HeLa were 4.21, 4.60 and 4.43, respectively.

Consider `COc1cc(Cn2nnc3c2CCC(C(=O)O[C@@H]2O[C@@H]4O[C@@]5(C)CC[C@H]6[C@H](C)CC[C@@H]([C@H]2C)[C@@]46OO5)C3)cc(OC)c1OC` (stereo partly drawn), for which the results for the pIC50 with HMEC-1, with CCRF-CEM and in the assay with HeLa were 4.40, 5.37 and 4.68, respectively.

For the compound `COc1ccc2c(c1)-c1nnn(CCOC3O[C@@H]4O[C@@]5(C)CC[C@H]6[C@H](C)CC[C@@H]([C@H]3C)[C@@]46OO5)c1CC2` (stereo partly drawn), the pIC50 was 3.98 in the assay on HMEC-1, 3.89 in the assay on CCRF-CEM and 3.84 with HeLa.

For the compound `COc1cc(-c2cnnn2CCOC2O[C@@H]3O[C@@]4(C)CC[C@H]5[C@H](C)CC[C@@H]([C@H]2C)[C@@]35OO4)ccc1O` (stereo partly drawn), the pIC50 in the assay on HMEC-1 was 4.21; in the assay with CCRF-CEM, 4.41; with HeLa it was 4.64.

For the compound `Cc1ccc(Cn2nnc3c2CCC(C(=O)O[C@@H]2O[C@@H]4O[C@@]5(C)CC[C@H]6[C@H](C)CC[C@@H]([C@H]2C)[C@@]46OO5)C3)cc1` (stereo partly drawn), the pIC50 was 4.47 in the assay with HMEC-1, 5.57 in the assay with CCRF-CEM and 4.96 with HeLa.

The pIC50 is −log10 of the IC50, conventionally taken in molar units. A high value points to a low IC50.
